# Assay results reported in patent US4963570A, “1-(acetylaminophenyl)-2-aminopropanone derivatives and pharmaceutical compositions thereof” (Laboratoire L. Lafon, priority 1983, dated 1990).
# Structures can show the parent of a compound that is named as a salt.
# Columns and labels:
# immunological properties = test: immunological properties, overall; assay type: in vivo; settings: dose not stated
# Text: The present 1-(acetylaminophenyl)-2-aminopropanone derivatives are useful in therapy. They all act on the CNS, more precisely as antidepressants. They have a stimulant or excitant component in their neuropsychopharmacological profile.
# CNS = test: overall neuropsychopharmacological (CNS) profile; assay type: in vivo, mouse; rat; settings: i.p., mice and rats; dose not stated
# Method: The neuropsychopharmacological study of CRL 41 219 was carried out as indicated above for CRL 41 224.
# The neuropsychopharmacological study of CRL 41 220 was carried out in accordance with the procedures given above for CRL 41 224.
# man = test: clinical trials; assay type: in vivo, human; settings: man, oral, 250 to 500 mg
# LEWIS' carcinoma = LEWIS' carcinoma in mice; assay type: in vivo, mouse
# Method: a. animals: consanguineous female mice (C57 BL6), b. infecting cells: 10^5 cells injected subcutaneously into the back of the animals, c. monitoring of the tumor growth by measurement of the tumor twice a week, d. evaluation of the pulmonary metastases after fixation of the lungs of the dead animals in BOUIN's fixative.
# Using the same procedures, the association of CRL 41 220 with 150 mg/kg of cyclophosphamide gives the results collated in Table II below.
# [1] = test system: spleen cells expressing a direct IgM antibody response; test: test for cells forming lysis areas (PFC IgM, Cunningham); assay type: in vivo, mouse; settings: dose not stated
# Method: Immunological assays were carried out in order to point out the interest of CRL 41 240 as an immunomodulating agent. Specifically, the test used was the so-called test for cells forming lysis areas, described by A. J. […] et al. ("Further improvements in the plaque technique for detecting simple antibody forming cells"), Immunology 14, pages 599-601 (1968).
# The test for cells forming lysis areas (or PFC IgM) explores the humoral immunity. Four days after immunization with a T-dependent antigen (in this case red blood corpuscles of sheep), the spleen cells expressing a direct IgM antibody response are counted. The mice used for this purpose are conventional female OF1 mice devoid of specific pathogenic organisms, weighing from 20 to 30 g and divided up into a control group of 14 animals and groups each containing 7 animals per dose and per product to be studied, administered orally on the same day as the antigen. An activity index I is calculated for each dose of product according to the following equation: [formula]
# This test is performed at least twice for each dose of test product [C(control amimals), 0.01, 0.1, 10 and 100 mg/kg] and a statistical study is undertaken using the Student t test after variance analysis on the number of lyses per spleen.
# [2] = test system: delayed hypersensitivity to the red blood corpuscles of sheep; test: delayed hypersensitivity to the red blood corpuscles of sheep (Miller); assay type: in vivo; settings: dose not stated
# male mice = test: acute toxicity, intraperitoneal (lethal doses); assay type: in vivo, mouse; settings: i.p.
# Method: (§1) By intraperitoneal administration to male mice, the LD-30 (lethal dose for 30% of the animals tested) is of the order of 128 mg/kg and the LD-50 is of the order of about 200 mg/kg.
# [3] = acute toxicity, intraperitoneal (lethal doses); assay type: in vivo, mouse; settings: mouse, in vivo, ip; male mice
# Method: as §1
# dogs = test: cardiovascular action in anesthetized dogs; assay type: in vivo, dog
# Method: Four dogs (average weight: 13.8 kg), anesthetized with nembutal, receive CRL 41 220 by intraduodenal administration at successive doses of 0.1 mg/kg, 0.5 mg/kg, 1 mg/kg, 2.5 mg/kg, 5 mg/kg and 10 mg/kg. The blood pressure, the heart beat, the flow rate through the femoral artery, the flow rate through the vertebral artery and the rectal and/or skin temperature are measured and the coloration of the skin and the bile (collected by catheterization of the bile duct after ligature of the cystic duct) is observed.
# [4] = CRL 41 220 2 mg/kg + cyclophosphamide 150 mg/kg
# [5] = dogs, after accumulated 19.1 mg/kg intraduodenal
# [6] = dogs, after intraduodenal CRL 41 220
compound,measurement,setting,value
"CC(=O)Nc1c(Cl)cc(C(=O)C(C)NC(C)C)cc1Cl (stereo not shown) [CRL 41 220, 1-(4-acetylamino-3,5-dichlorophenyl)-2-isopropylaminopropanone hydrochloride]","immunological properties, overall",immunological properties,beneficial immunomodulating effects
same,overall action on the CNS,CNS,antidepressant and stimulant effects
same,"clinical result: circulatory disorders and insufficient immunoreaction (recurrent herpes, rheumatoid polyarthritis, severe measles)",man,good results
same,animals treated still being alive several weeks after the experiment,LEWIS' carcinoma; [4],all
same,protective action in respect of LEWIS' carcinoma,LEWIS' carcinoma; [4],unquestionable protective
same,differences compared with cyclophosphamide used by itself,LEWIS' carcinoma; CRL 41 220 5 mg/kg + cyclophosphamide 150 mg/kg,substantially few
same,toxicity of the association compared with cyclophosphamide used by itself,LEWIS' carcinoma; CRL 41 220 100 mg/kg + cyclophosphamide 150 mg/kg,increase in the toxicity
same,"activity in LEWIS' carcinoma, used by itself","LEWIS' carcinoma; female C57 BL6 mice, alone",inactive
same,"activity in the study of LEWIS' carcinoma, overall statement",LEWIS' carcinoma; mice,active
same,"immunomodulating activity, test for cells forming lysis areas",[1],immunomodulating stimulant capacity
same,"immunomodulating activity, delayed hypersensitivity",[2],immunomodulating stimulant capacity
same,LD-0 (maximum non-lethal dose),male mice,greater than 128 mg/kg
same,LD-30,male mice,about 250 mg/kg
same,LD50,[3],~500 mg/kg
same,respiratory stimulation,"dogs; 4 dogs, intraduodenal",induces respiratory stimulation in the 4 dogs
same,diastolic blood pressure before isoprenaline,dogs; [5],112 mm Hg
same,diastolic blood pressure with 10 μg/kg of isoprenaline,dogs; [5],47 mm Hg
same,effect of isoprenaline on the diastolic blood pressure after CRL 41 220,dogs; [5],very slightly modified as regards the diastolic blood pressure
same,effect of isoprenaline on the heart beat after CRL 41 220,dogs; [5],not modified as regards the heart beat
same,heart beat before isoprenaline,dogs; [5],221 beats/minute
same,heart beat with 10 μg/kg of isoprenaline,dogs; [5],275 beats/minute
same,effect of 1 mg/kg of propanolol at the end of the test,dogs; [6],suppresses all the effects of CRL 41 220
same,systolic blood pressure before noradrenaline,dogs; [6],202 mm Hg
same,systolic blood pressure with 2 μg/kg of noradrenaline,dogs; [6],272 mm Hg
same,hypertension induced by noradrenaline,"dogs; dogs, after intraduodenal CRL 41 220, noradrenaline 2 μg/kg",hypertension induced by noradrenaline is reduced
same,overall cardiovascular action,"dogs; dogs, intraduodenal",acts as a hypotensive agent
same,rectal and skin temperatures,"dogs; dogs, intraduodenal",increases the rectal and skin temperatures
same,femoral flow rate,"dogs; dogs, intraduodenal, 1 mg/kg","increases the vertebral flow rate as from a dose of 0.5 mg/kg, the femoral flow rate"
same,heart beat,"dogs; dogs, intraduodenal, 2.5 mg/kg","increases the vertebral flow rate as from a dose of 0.5 mg/kg, the femoral flow rate at a dose of 1 mg/kg and the heart beat"
same,hypotensive effect,"dogs; dogs, intraduodenal, 10 mg/kg",hypotensive effect
same,vertebral flow rate,"dogs; dogs, intraduodenal, as from 0.5 mg/kg",increases the vertebral flow rate
